Holding throughout (assay type): physicochemical
Data set [1] in a line: RP-TLC lipophilicity, silica gel C18, methanol-water. Particulars: for C 0: RP-TLC silica gel C18, C0 = −RM^0/b; for PC1: RP-TLC silica gel C18, first principal component of RM values, contains 86.92% of information; for mRM: RP-TLC silica gel C18, mean value of RM; for R M ^0: RP-TLC silica gel C18, methanol-water 40 to 70% (v/v), intercept of Soczewiński–Wachtmeister equation; for b: RP-TLC silica gel C18, slope of Soczewiński–Wachtmeister equation. On the procedure: (§1) The ready-to-use TLC glass plates covered by octadecyl(C18)- and octyl(C8)-modified TLC silica layers were purchased from Merck (Darmstadt, Germany). Stock solutions (5 µL) of the analytes were spotted manually on the plates with the use of a micropipette from Brand (Wertheim, Germany). The mobile phases were prepared by mixing appropriate volumes of pure organic solvents and water (in step gradient by 10% (v/v)), in the following proportions: (a) methanol–water ranging from 30 to 70% (v/v), in the case of C8-bonded silica gel stationary phase; and (b) methanol–water ranging from 40 to 70% (v/v), in the case of C18-bonded silica gel stationary phase.
(§2) Before analysis, the chromatographic chamber (Twin Trough Chambers from CAMAG Philadelphia, USA) was saturated for 20 min. All TLC experiments were performed at room temperature (22 ± 2 °C). Chromatograms were developed using the ascending technique to a distance of 8 cm. The investigated substances were visualized under UV light at λ = 366 nm by CAMAG UV Lamp 4 and the Viewing Box 4 (Philadelphia, USA). […] The obtained retardation factors (RF) were collected in the Supplementary data sheets. The retention parameter, RM, was calculated for each compound according to the Bate-Smith and Westall formula: (7) RM=log(1/RF−1) and listed in Table S2. Next, the Soczewiński–Wachtmeister’s equation: RM = RM^0 + bC(8) was used in order to determine the basic lipophilic RP-TLC parameter RM^0 as well as commonly used hydrophobic constants m. Soczewiński–Wachtmeister’s equation presented a linear relationship between concentration of the organic solvent in mobile phase (C) and RM value. Moreover, mean value of RM was used for lipophilicity assessments.
(§3) Furthermore, C0 RP-TLC lipophilicity parameter, introduced by Bieganowska, has been calculated according to the formula:(9) C0=−RM^0/b.
(§4) The C0 parameter corresponds to the parameter φ0, previously proposed for the HPLC. This parameter relates to the concentration of the organic component in the mobile phase for which the distribution of the analyzed substance between the mobile and stationary phase is equal (1:1).
(§5) Also, the principal component analysis (PCA) was applied in order to extract information regarding the lipophilicity of solutes and formulate them as the first principal component (PC1). Calculation data matrixes included RM values of solutes for each modifier concentration in the mobile phase.

Data set [2] is described as follows: MEKC lipophilicity (SDS micelles, pH 7.4). As to conditions: 50 mM SDS, HEPES/TRIS buffer pH 7.4, 25 °C. Here is the method:
All MEKC experiments were carried out with a P/ACE MDQ plus system (Sciex, Framingham, MA, USA) equipped with photodiode array detector (PDA) and controlled by 32 Karat software (version 10.2). The uncoated fused silica capillaries (50 µm i.d., Polymicro Technologies, West Yorkshire, UK) of 60 cm total length and 50.2 cm effective length were used. Prior to analysis, the capillary was rinsed with 0.1 M NaOH for 30 min, ultrapure water for 10 min, and background electrolyte (BGE) for 30 min. After each analysis, the capillary was conditioned with BGE for 2 min. The applied pressure for all rinsing operations was 345 kPa. The analytes were dissolved in BGE at concentration of 100 µg/mL with addition of quinine (micelles marker). As electroosmotic flow (EOF) marker, DMSO was used. The samples were hydrodynamically injected at 35 kPa for 5 s. The separations were performed by applying voltage of 20 kV with positive polarity and constant temperatures at 25 ± 0.1 °C. The BGE consisted of aqueous solution of 50 mM SDS and 120 mM HEPES /100 mM TRIS buffer of pH 7.4. The BGE was prepared each working day by dilution of stock solution. Detection was carried out at 200 and 280 nm with 8 Hz probing frequency. The logarithm of retention factor logk was calculated according to the equation introduced by Terabe and co-workers:(10) logkMEKC=log(tR−tEOF/tEOF(1−tR/tMC)) The established logk parameters are summarized in Table 2.

The nature of data set [3]: RP-TLC lipophilicity, silica gel C8, methanol-water. As to conditions: for C 0: RP-TLC silica gel C8, C0 = −RM^0/b; for PC1: RP-TLC silica gel C8, first principal component of RM values, contains 83.57% of information; for mRM: RP-TLC silica gel C8, mean value of RM; for R M ^0: RP-TLC silica gel C8, methanol-water 30 to 70% (v/v), intercept of Soczewiński–Wachtmeister equation; for b: RP-TLC silica gel C8, slope of Soczewiński–Wachtmeister equation. Here is the method:
as §1, §2, §3, §4, §5

The structures appear in SMILES notation.

Take `CCn1cc(C(=O)O)c(=O)c2cnc(N3CCNCC3)nc21` [Compound 19, pipemidic acid, reference compound]: in data set [1], the “C 0” value is listed as 1.35, the PC1 is −1.24, the mRM was found to be 1.24 and the “R M ^0” value is listed as 2.39. Also, the b in data set [1] is reported as −1.78. The logk in data set [2] was −0.170. For the same compound, the logk in data set [2] (listed as pipemidic acid) is −0.1697. Moreover, in data set [3], the “C 0” value is listed as 1.65, the PC1 is reported as −3.91, the mRM amounted to 1.30 and the “R M ^0” value turned out to be 1.87. Also, the b in data set [3] is −1.13.
As to `O=C(O)C1=Cc2ccccc2N2C[N+]3(CCN(c4cc5c(cc4F)c(=O)c(C(=O)O)cn5C4CC4)CC3)N=C12.[Cl-]` [Compound 8], in data set [1], the “C 0” value worked out at 1.07, the PC1 came to 1.18, the mRM worked out at 0.89 and the “R M ^0” value is 1.83. In addition, the b in data set [1] was −1.71. In data set [2], this compound had a logk of −0.153. Also, in data set [3], the “C 0” value was 1.09, the PC1 was −1.26, the mRM was 0.93 and the “R M ^0” value is 1.71. Also, the b in data set [3] is recorded as −1.56.
On to `CCn1cc(C(=O)O)c(=O)c2cc(F)c(N3CC[N+]4(CC3)CN3C(C)=CC(C)=C(C(=O)O)C3=N4)cc21.[Cl-]` [Compound 12], for which, in data set [1], the “C 0” value is listed as 1.00, the PC1 was 1.97, the mRM came out at 0.78 and the “R M ^0” value worked out at 1.75. For the same compound, the b in data set [1] is listed as −1.75. The same compound showed a logk in data set [2] of −0.272. Besides, in data set [3], the “C 0” value is reported as 1.00, the PC1 is recorded as −0.38, the mRM was determined as 0.82 and the “R M ^0” value is 1.63. The compound further registered a b in data set [3] of −1.63.
As for `CC1=CC(C)=C(C(=O)O)C2=N[N+]3(CN12)C(C)CN(c1c(F)c(N)c2c(=O)c(C(=O)O)cn(C4CC4)c2c1F)CC3C.[Cl-]` (centres unmarked) [Compound 14], in data set [1], the “C 0” value is reported as 0.86, the PC1 came out at 1.32, the mRM is on record as 0.88 and the “R M ^0” value is listed as 2.45. This compound displayed a b in data set [1] of −2.84. The same compound showed a logk in data set [2] of −0.261. In data set [3], the “C 0” value is recorded as 0.86, the PC1 is −1.79, the mRM is 0.96 and the “R M ^0” value is reported as 2.29. The b in data set [3] is recorded as −2.66.
Consider `COc1c(N2CC[N+]3(CN4C(=N3)C(C(=O)O)=Cc3ccccc34)C(C)C2)c(F)cc2c(=O)c(C(=O)O)cn(C3CC3)c12.[Cl-]` (centres unmarked) [Compound 2], for which, in data set [1], the “C 0” value is 0.84, the PC1 was determined as 0.81, the mRM came out at 0.95 and the “R M ^0” value was determined as 2.78. Further, in data set [1], the b was −3.31. In data set [2], this compound came in with a logk of −0.125. In data set [3], the “C 0” value is reported as 0.89, the PC1 is recorded as −2.22, the mRM was 1.01 and the “R M ^0” value is given as 2.31. In data set [3], this compound showed a b of −2.61.
Consider `CCn1cc(C(=O)O)c(=O)c2cc(F)c(N3CC[N+]4(CC3)CN3C(=N4)C(C(=O)O)=Cc4ccccc43)nc21.[Cl-]` [Compound 7], for which, in data set [1], the “C 0” value amounted to 1.17, the PC1 came out at 0.48, the mRM was found to be 0.99 and the “R M ^0” value was determined as 1.87. The b in data set [1] is −1.60. In data set [2], this compound showed a logk of −0.239. In addition, in data set [3], the “C 0” value worked out at 1.23, the PC1 is on record as −2.01, the mRM came to 1.05 and the “R M ^0” value was 1.76. Also, in data set [3], the b was −1.43.
Take `CCn1cc(C(=O)O)c(=O)c2cc(F)c(N3CC[N+]4(CN5C(C)=CC(C)=C(C(=O)O)C5=N4)C(C)C3)c(F)c21.[Cl-]` (centres unmarked) [Compound 9]: in data set [1], the “C 0” value is 0.98, the PC1 stood at 1.75, the mRM is reported as 0.81 and the “R M ^0” value is listed as 1.86. In addition, the b in data set [1] is given as −1.91. This compound came in with a logk in data set [2] of −0.479. In data set [3], the “C 0” value came to 0.97, the PC1 is −0.11, the mRM came out at 0.79 and the “R M ^0” value worked out at 1.62. This compound yielded a b in data set [3] of −1.66.
For `COc1c(N2CC3CCC[N+]4(CN5C(=N4)C(C(=O)O)=Cc4ccccc45)C3C2)c(F)cc2c(=O)c(C(=O)O)cn(C3CC3)c12.[Cl-]` (centres unmarked) [Compound 15], in data set [1], the “C 0” value is given as 0.84, the PC1 was −1.12, the mRM is 1.24 and the “R M ^0” value came to 3.56. Further, the b in data set [1] is −4.21. The compound also yielded a logk in data set [2] of −0.250. Moreover, in data set [3], the “C 0” value stood at 0.91, the PC1 is on record as −3.52, the mRM was 1.19 and the “R M ^0” value stood at 2.63. Further, the b in data set [3] is reported as −2.88.
For the compound `CCn1cc(C(=O)O)c(=O)c2cc(F)c(N3CC[N+]4(CN5C(=N4)C(C(=O)O)=Cc4ccccc45)C(C)C3)c(F)c21.[Cl-]` (centres unmarked) [Compound 5], in data set [1], the “C 0” value is reported as 0.93, the PC1 stood at 0.88, the mRM came to 0.94 and the “R M ^0” value turned out to be 2.29. In data set [1], this compound yielded a b of −2.45. For the same compound, the logk in data set [2] is given as −0.265. In data set [3], the “C 0” value stood at 1.04, the PC1 is −1.69, the mRM is reported as 0.98 and the “R M ^0” value is 1.90. Moreover, the b in data set [3] is −1.83.
For the compound `COc1c(N2CCNC(C)C2)c(F)cc2c(=O)c(C(=O)O)cn(C3CC3)c12` (centres unmarked) [Compound 21, reference compound], in data set [1], the “C 0” value is given as 1.06, the PC1 is on record as −1.63, the mRM came out at 1.31 and the “R M ^0” value worked out at 2.69. The b in data set [1] is reported as −2.55. The compound further yielded a logk in data set [2] of 0.101. In data set [3], the “C 0” value amounted to 0.95, the PC1 is listed as −4.29, the mRM turned out to be 1.26 and the “R M ^0” value is 2.68. The b in data set [3] is listed as −2.83.
For `CC1CN(c2c(F)c(N)c3c(=O)c(C(=O)O)cn(C4CC4)c3c2F)CC(C)[N+]12CN1C(=N2)C(C(=O)O)=Cc2ccccc21.[Cl-]` (centres unmarked) [Compound 3], in data set [1], the “C 0” value is given as 0.88, the PC1 worked out at 0.34, the mRM turned out to be 1.02 and the “R M ^0” value is recorded as 2.75. In data set [1], this compound had a b of −3.13. In addition, in data set [2], the logk was −0.070. For the same compound, in data set [3], the “C 0” value stood at 0.86, the PC1 is −3.48, the mRM came to 1.15 and the “R M ^0” value is recorded as 2.74. Besides, the b in data set [3] is −3.17.

These data come from article PMC6862250, “Lipophilicity Determination of Quaternary (Fluoro)Quinolones by Chromatographic and Theoretical Approaches” (International Journal of Molecular Sciences, 2019).
